11 compounds from ChEMBL document CHEMBL1201862, “PubChem BioAssay data set” (2004) can be followed below.

Some test systems named below: OVCAR-4; ACHN; 786-0; U-251; SF-268; MDA-MB-435; HOP-62; A498; RPMI-8226; SNB-75; MCF7; SK-MEL-5; HT-29; Malme-3M; UACC-62; UACC-257; KM12; PC-3; LOX IMVI.
Common to all, as to test: inhibition of tumour cell growth, NCI panel, 48 h

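Growth conditions: 96-well plates. Treatment: test compound, 48 hours, 5 concentrations. Analysis: linear interpolation between bracketing concentrations; unreached endpoints set to highest concentration. GI50 marks 50% less growth.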 Active and inactive are the calls of the source. Cut-off read from the data, not from the text of the source: active = GI50 up to about 1.1 µM and inactive = higher.

Regarding `O=C1CC(=O)NC(NN2C(=O)CSC2C(=O)c2ccco2)=N1` (stereo unspecified), the GI50 in the test on OVCAR-4, in the test on ACHN, with 786-0, in the test with U-251, with SF-268 and with MDA-MB-435 was > 100 µM (inactive) each time. Besides, the GI50 is > 100 µM (inactive) in the test with HOP-62; > 100 µM (inactive) in the test on A498; > 100 µM (inactive) in the test with RPMI-8226; 12.2 µM (inactive) in the test on SNB-75; > 100 µM (inactive) in the test with MCF7; > 100 µM (inactive) in the test on SK-MEL-5. The GI50 was > 100 µM (inactive) with HT-29; > 100 µM (inactive) in the test on Malme-3M; > 100 µM (inactive) with UACC-62; > 100 µM (inactive) with UACC-257; 3.05 µM (inactive) with KM12; > 100 µM (inactive) with PC-3.

As for `CCCCSc1n/c(=C\c2ccc(N(C)C)cc2)c2nnnn12`, the GI50 with OVCAR-4, with ACHN, with 786-0, in the test with U-251, in the test on SF-268 and in the test with MDA-MB-435 was > 100 µM (inactive) in each case. The GI50 with HOP-62, in the test with A498, in the test on RPMI-8226, with SNB-75, in the test on MCF7 and in the test on HT-29 was > 100 µM (inactive) each time. Also, the GI50 with Malme-3M, in the test with UACC-62, in the test with UACC-257, in the test with KM12, with LOX IMVI and with PC-3 was > 100 µM (inactive) in each case.

`Cc1nc2ccccc2n1Cc1nnc(N)o1`: the GI50 is > 100 µM (inactive) with ACHN; > 100 µM (inactive) in the test on 786-0; > 100 µM (inactive) in the test on U-251; > 100 µM (inactive) in the test with SF-268; 0.1 µM (active) in the test with MDA-MB-435; > 100 µM (inactive) in the test with HOP-62. The GI50 in the test with A498, with RPMI-8226, in the test with SNB-75, in the test with MCF7, in the test with SK-MEL-5 and in the test on HT-29 was > 100 µM (inactive) each time. For the same compound, the GI50 with Malme-3M, in the test on UACC-62, in the test on UACC-257, in the test on KM12, in the test on LOX IMVI and with PC-3 was > 100 µM (inactive) each time.

With `COC(=O)C1C2CC3C1C3C2C(=O)OC` (stereo unspecified), the GI50 in the test on OVCAR-4, in the test on ACHN, in the test with 786-0, with U-251, in the test on SF-268 and in the test on MDA-MB-435 was > 100 µM (inactive) each time. Besides, the GI50 in the test with HOP-62, in the test with A498, in the test on SNB-75, with MCF7, in the test with SK-MEL-5 and in the test with HT-29 was > 100 µM (inactive) in each case. Moreover, the GI50 with Malme-3M, in the test with UACC-62, in the test on UACC-257, in the test with KM12, in the test on LOX IMVI and with PC-3 was > 100 µM (inactive) each time.

In the case of `Cc1cn(C2CC(N/C(=N/C#N)NCC3OC(n4cnc5c(N)ncnc54)CC3O)C(CO)O2)c(=O)[nH]c1=O` (stereo unspecified), the GI50 in the test with OVCAR-4, with ACHN, with 786-0, in the test on U-251, in the test on SF-268 and in the test with MDA-MB-435 was > 100 µM (inactive) throughout. In addition, the GI50 is > 100 µM (inactive) in the test with HOP-62; > 100 µM (inactive) in the test on A498; > 100 µM (inactive) with SNB-75; 1.04 µM (active) in the test with MCF7; > 100 µM (inactive) in the test on SK-MEL-5; > 100 µM (inactive) in the test with HT-29. Further, the GI50 in the test on Malme-3M, in the test on UACC-62, in the test with UACC-257, in the test with KM12, in the test on LOX IMVI and in the test with PC-3 was > 100 µM (inactive) throughout.

As for `O=C1CCCCC/C1=C\c1cccc(F)c1`, the GI50 in the test on ACHN is 35.6 µM (inactive); with 786-0 it was > 100 µM (inactive); in the test on U-251, 48.1 µM (inactive); with SF-268, 82.4 µM (inactive); in the test with MDA-MB-435 it was 55.2 µM (inactive); with HOP-62, > 100 µM (inactive). Moreover, the GI50 with A498 is > 100 µM (inactive); in the test with RPMI-8226, 19.8 µM (inactive); with SNB-75 it was > 100 µM (inactive); with MCF7, 64.9 µM (inactive); with SK-MEL-5 it was 66.7 µM (inactive); in the test on HT-29, 60.5 µM (inactive). In addition, the GI50 in the test on Malme-3M was > 100 µM (inactive); in the test with UACC-62, 67.3 µM (inactive); in the test with UACC-257, 59 µM (inactive); in the test on KM12, 59.2 µM (inactive); with PC-3, > 100 µM (inactive).

As for `CC1=NN(c2nc(N)nc(-c3cc4ccccc4oc3=N)n2)C(C)(C)C1`, the GI50 with OVCAR-4 is 17.4 µM (inactive); in the test with ACHN, 19 µM (inactive); in the test on 786-0, 15.3 µM (inactive); in the test on U-251, 27 µM (inactive); with SF-268, 19.1 µM (inactive); in the test on MDA-MB-435, 19.7 µM (inactive). The GI50 is 21.4 µM (inactive) with HOP-62; 27.7 µM (inactive) in the test on A498; 19.6 µM (inactive) in the test with RPMI-8226; 27.7 µM (inactive) in the test with MCF7; 16.8 µM (inactive) in the test on SK-MEL-5; 19.7 µM (inactive) in the test with HT-29. The GI50 is 17.5 µM (inactive) in the test on Malme-3M; 16.2 µM (inactive) with UACC-62; 16.7 µM (inactive) in the test with UACC-257; 17.7 µM (inactive) in the test on KM12; 17.1 µM (inactive) with PC-3.

With `CCOC(=O)c1[nH]c(-c2[nH]c(-c3[nH]c(-c4[nH]c(C(=O)OCC)c(C)c4C(=O)OCC)c(C(=O)OCC)c3C)c(C)c2C(=O)OCC)c(C(=O)OCC)c1C`, the GI50 with OVCAR-4, in the test with ACHN, in the test with 786-0, in the test on U-251, in the test on SF-268 and in the test with MDA-MB-435 was > 100 µM (inactive) in each case. Moreover, the GI50 in the test on HOP-62 was > 100 µM (inactive); in the test on A498, > 100 µM (inactive); with RPMI-8226 it was > 100 µM (inactive); in the test on MCF7 it was > 100 µM (inactive); in the test with SK-MEL-5 it was 50.4 µM (inactive); with HT-29 it was > 100 µM (inactive). The GI50 with Malme-3M, with UACC-62, in the test on UACC-257, in the test on KM12, with LOX IMVI and with PC-3 was > 100 µM (inactive) throughout.

As for `CC1=NN(C(=O)c2ccccc2O)C(c2ccccc2Cl)C1C(=O)Nc1ccccc1` (stereo unspecified), the GI50 in the test with OVCAR-4 is 0.098 µM (active); in the test with ACHN it was 0.0238 µM (active); in the test on 786-0, < 0.0457 µM (active); in the test on U-251, < 0.0213 µM (active); with SF-268 it was < 0.01 µM (active); in the test on MDA-MB-435, < 0.0195 µM (active). For the same compound, the GI50 was 0.262 µM (active) in the test with HOP-62; < 0.01 µM (active) in the test with A498; 0.0726 µM (active) in the test on RPMI-8226; 0.0387 µM (active) with MCF7; 0.167 µM (active) in the test with SK-MEL-5; 2.96 µM (inactive) in the test with HT-29. For the same compound, the GI50 in the test on Malme-3M was 0.0565 µM (active); in the test with UACC-62, < 0.0197 µM (active); with UACC-257 it was 0.283 µM (active); in the test with KM12, 0.107 µM (active); in the test on LOX IMVI, 0.0728 µM (active); in the test on PC-3, 1.75 µM (inactive).

For the compound `COc1ccc(-c2c(N)n(-c3nc4ccccc4s3)c(=O)c3cc([N+](=O)[O-])ccc23)cc1`, the GI50 in the test with OVCAR-4 is 24.1 µM (inactive); in the test with ACHN, 22 µM (inactive); with 786-0, 4.29 µM (inactive); in the test on U-251, 7.6 µM (inactive); in the test on SF-268 it was 17.2 µM (inactive); in the test with MDA-MB-435 it was 19 µM (inactive). Besides, the GI50 was 14 µM (inactive) with HOP-62; 74 µM (inactive) with A498; 1.81 µM (inactive) in the test on RPMI-8226; 8.43 µM (inactive) in the test on SNB-75; 44.8 µM (inactive) in the test with MCF7; 49 µM (inactive) in the test with HT-29. The GI50 was 20.7 µM (inactive) in the test with Malme-3M; > 100 µM (inactive) with UACC-62; 67.8 µM (inactive) in the test with UACC-257; 18.6 µM (inactive) with KM12; 14.9 µM (inactive) with LOX IMVI; 30.8 µM (inactive) in the test on PC-3.

With `O=CN1CCN(C(=O)c2ccc(Cl)cc2Cl)C1=S`, the GI50 is > 100 µM (inactive) in the test on OVCAR-4; > 100 µM (inactive) in the test with ACHN; 30.7 µM (inactive) in the test with 786-0; > 100 µM (inactive) in the test with U-251; 26.1 µM (inactive) with SF-268; 43.9 µM (inactive) with MDA-MB-435. The GI50 was > 100 µM (inactive) in the test on HOP-62; 42 µM (inactive) with A498; 20.5 µM (inactive) in the test with RPMI-8226; 21 µM (inactive) with SNB-75; 34.6 µM (inactive) with MCF7; > 100 µM (inactive) in the test on HT-29. The GI50 is > 100 µM (inactive) in the test with Malme-3M; > 100 µM (inactive) with UACC-62; > 100 µM (inactive) in the test on UACC-257; 43.2 µM (inactive) in the test on KM12; 32.3 µM (inactive) in the test with LOX IMVI; > 100 µM (inactive) in the test with PC-3.
